In PubChem BioAssay AID1769 (NMMLSC, 2009):
pEC50: −log10 of the molar value.

Molecular target: glutathione S-transferase (Schistosoma japonicum GST tag binding GSH beads)
Test: GST–glutathione bead interaction interference profiling – biochemical, multiplex beads, flow cytometry, profiling panel (AID 1769);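 further: target is a GST and green fluorescent protein fusion captured on glutathione beads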
Conditions: flow cytometry fluorescence

Question: How did the pEC50 turn out when `Cc1cc2[nH]c3c(c[n+](C)c4ccccc34)c2cc1C` was run?
Answer: Its pEC50 is 5.02.

Question: `CN(/N=C/c1ccco1)C1=NS(=O)(=O)c2ccccc21` was tested. Which pEC50 did it give?
Answer: The pEC50 was 5.59.

Question: `COC(=O)COc1ccc(/C=N/NC(=O)c2ccc(N(Cc3ccccc3)S(C)(=O)=O)cc2)cc1` was tested. Which pEC50 did it give?
Answer: Its pEC50 is 5.39.

Question: `CCC1CCCCN1S(=O)(=O)c1ccc(NC(=O)CSc2ncccc2C(=O)O)cc1` (stereo not drawn) was tested. Which pEC50 did it give?
Answer: The pEC50 was 4.97.

Question: How did the pEC50 turn out when `Cc1sc2nc3c(SC(C)C(=O)O)cc(C(=O)c4ccccc4O)cn3c(=O)c2c1C` (stereo not drawn) was run?
Answer: Its pEC50 is 4.03.

Question: With `O=C(O)CC/C(=C\c1ccc(N2CCCC2)c([N+](=O)[O-])c1)c1nc2ccccc2s1` as the molecule, how does the pEC50 read?
Answer: The pEC50 was 4.43.

Question: With `COc1cc(C(=S)NCc2ccccc2)cc(Br)c1O` as the molecule, how does the pEC50 read?
Answer: Its pEC50 is 4.27.

Question: `COc1ccc(Nc2nc(-c3c(C)nc4ncccn34)cs2)cc1` was tested. Which pEC50 did it give?
Answer: The pEC50 was 5.08.

Question: With `COc1ccc(-c2csc(C3=C(O)CN(C(C)C)C3=N)n2)cc1OC` as the molecule, how does the pEC50 read?
Answer: Its pEC50 is 4.06.

Question: How did the pEC50 turn out when `CCCc1nc2oc3c(=O)[nH]cnc3c2c2c1CCCC2` was run?
Answer: Its pEC50 is 5.69.

Question: How did the pEC50 turn out when `Cn1cccc1/C=C1\SC(=S)N(NC(=O)c2ccccc2Cl)C1=O` was run?
Answer: The pEC50 was 4.29.

Question: `COc1cc(/C=N/Nc2nc(C)nc3c2cnn3-c2ccccc2)ccc1O` was tested. Which pEC50 did it give?
Answer: The pEC50 was 6.20.

Question: With `O=C(COC(=O)c1ccc2c(c1[N+](=O)[O-])C(=O)c1ccccc1C2=O)NC1CC1` as the molecule, how does the pEC50 read?
Answer: The pEC50 was 4.55.

Question: How did the pEC50 turn out when `CCn1cc(C(=O)O)c(=O)c2cc(F)c(N/N=C/c3ccccc3[N+](=O)[O-])cc21` was run?
Answer: The pEC50 was 5.57.

Question: `O=c1c2ccccc2nc2ccc(NCc3ccco3)nn12` was tested. Which pEC50 did it give?
Answer: The pEC50 was 4.29.

Question: With `CCOc1ccc2c(c1)c(N=NC(=N)N)c(O)n2C` as the molecule, how does the pEC50 read?
Answer: Its pEC50 is 4.59.

Question: How did the pEC50 turn out when `O=c1c2ccccc2nc2c3ccccc3c(NCCO)nn12` was run?
Answer: The pEC50 was 5.45.

Question: `Cc1cc(C)cc(N2C(=O)NC(=O)/C(=C\C=C\c3ccco3)C2=O)c1` was tested. Which pEC50 did it give?
Answer: Its pEC50 is 5.36.

Question: With `Cc1cccc(S(=O)(=O)c2c(N)n(/N=C/c3cccnc3)c3nc4ccccc4nc23)c1` as the molecule, how does the pEC50 read?
Answer: Its pEC50 is 5.47.

Question: With `COc1cc(/C=N/NC(=O)CN(Cc2ccccc2)S(=O)(=O)c2ccc3c(c2)OCCO3)ccc1O` as the molecule, how does the pEC50 read?
Answer: Its pEC50 is 4.69.

Question: How did the pEC50 turn out when `Cc1ccc2c(c1)c1nnc(SCC(=O)N3CCCc4ccccc43)nc1n2CC(=O)O` was run?
Answer: Its pEC50 is 4.16.

Question: How did the pEC50 turn out when `Cc1cc(N/N=C/c2ccc(O)cc2O)nc(-n2nc(C)cc2C)n1` was run?
Answer: The pEC50 was 6.08.

Question: How did the pEC50 turn out when `O=[N+]([O-])c1cc(-c2ncccn2)c([N+](=O)[O-])s1` was run?
Answer: The pEC50 was 5.12.

Question: With `COc1ccc(-c2c3c(nc4sc5c(=O)[nH]c(C)nc5c24)CCC3)cc1` as the molecule, how does the pEC50 read?
Answer: The pEC50 was 5.43.

Question: `Cc1nnc2ccc(-c3cccc(NC(=O)c4ccco4)c3)nn12` was tested. Which pEC50 did it give?
Answer: Its pEC50 is 5.11.

Question: `COc1cc(N2CCCC2)c(OC)cc1/C=C(/C#N)c1ccc(Br)cc1` was tested. Which pEC50 did it give?
Answer: The pEC50 was 7.13.

Question: `COc1ccc(/C=C(/C#N)C(=O)Nc2ccc(O)cc2)cc1C(=O)O` was tested. Which pEC50 did it give?
Answer: Its pEC50 is 4.78.

Question: With `CN(C)S(=O)(=O)c1ccc(C(=O)NNc2nc(-c3ccccc3)c3cc(Br)ccc3n2)cc1` as the molecule, how does the pEC50 read?
Answer: Its pEC50 is 5.31.

Question: `CN(/N=C/c1ccc(Br)o1)C1=NS(=O)(=O)c2ccccc21` was tested. Which pEC50 did it give?
Answer: Its pEC50 is 6.73.

Question: With `Cc1nc2ncccn2c1-c1csc(Nc2ccc(O)cc2)n1` as the molecule, how does the pEC50 read?
Answer: Its pEC50 is 6.58.

Question: `COc1cc2c(cc1OC)-c1cc(NCc3ccccn3)nc(=O)n1CC2` was tested. Which pEC50 did it give?
Answer: The pEC50 was 5.71.

Question: How did the pEC50 turn out when `CC(=O)Nc1ccc(Nc2ccc3c4c(cc(=O)n3C)-c3ccccc3C(=O)c24)cc1` was run?
Answer: The pEC50 was 6.82.

Question: How did the pEC50 turn out when `O=C(N/N=C/c1ccc2nccnc2c1)c1cccc([N+](=O)[O-])c1` was run?
Answer: The pEC50 was 5.07.

Question: `CCN(CC)c1ccc(/C=C(\C#N)C(=O)c2ccc(Br)cc2)cc1` was tested. Which pEC50 did it give?
Answer: The pEC50 was 4.95.

Question: How did the pEC50 turn out when `O=C(Nc1cccc(Cl)c1)Nc1ccnc(-c2cccnc2)n1` was run?
Answer: Its pEC50 is 6.30.

Question: How did the pEC50 turn out when `O=c1[nH]c(=O)c2nnc(N/N=C\c3ccc(O)cc3)nc2[nH]1` was run?
Answer: The pEC50 was 5.42.

Question: How did the pEC50 turn out when `Nc1c(S(=O)(=O)c2cccs2)c2nc3ccccc3nc2n1/N=C/c1cccc(O)c1` was run?
Answer: Its pEC50 is 6.45.

Question: With `O=C(Nc1cccc(-c2nnc(-c3ccco3)o2)c1)c1ccccc1` as the molecule, how does the pEC50 read?
Answer: The pEC50 was 4.39.

Question: `CC(C)(C)c1ccc(C(=O)CC(Sc2ccc(Cl)cc2)C(=O)O)cc1` (stereo not drawn) was tested. Which pEC50 did it give?
Answer: The pEC50 was 5.45.

Question: How did the pEC50 turn out when `COc1ccc(C(=O)N/N=c2\oc3ccccc3cc2C(N)=O)cc1` was run?
Answer: Its pEC50 is 5.34.

Question: `COCCNC(=S)Nc1cc(OC)c(OC)cc1C#N` was tested. Which pEC50 did it give?
Answer: The pEC50 was 5.31.

Question: How did the pEC50 turn out when `O=C(C[n+]1cccc2ccccc21)c1ccc(NC(=O)c2ccccc2)cc1` was run?
Answer: The pEC50 was 4.99.

Question: `O=C(Nc1cc(S(=O)(=O)Nc2ccccc2Cl)ccc1O)c1sc2cc(Cl)ccc2c1Cl` was tested. Which pEC50 did it give?
Answer: Its pEC50 is 5.44.

Question: `COc1ccc(S(=O)(=O)N2CCCCC2)cc1NC(=O)c1ccc([N+](=O)[O-])o1` was tested. Which pEC50 did it give?
Answer: The pEC50 was 4.54.

Question: How did the pEC50 turn out when `O=C(NCc1cccs1)c1cccn2c(=O)c3sccc3nc12` was run?
Answer: Its pEC50 is 6.18.

Question: With `COc1ccccc1Nc1nc(-c2c(C)nc3ncccn23)cs1` as the molecule, how does the pEC50 read?
Answer: The pEC50 was 4.91.

Question: With `O=C(N/N=C/c1ccco1)c1ccc(C(=O)N/N=C/c2ccco2)o1` as the molecule, how does the pEC50 read?
Answer: Its pEC50 is 4.71.

Question: With `COc1ccc(-c2cc(=O)c(C(=O)c3ccc(C)cc3)n[nH]2)cc1` as the molecule, how does the pEC50 read?
Answer: The pEC50 was 5.39.

Question: With `COc1ccc(C(=O)Nc2nc3ccccc3[nH]2)cc1S(=O)(=O)N1CCOCC1` as the molecule, how does the pEC50 read?
Answer: The pEC50 was 4.49.

Question: `Cc1ccc(Nc2nc(-c3c(C)nc4ncccn34)cs2)cc1` was tested. Which pEC50 did it give?
Answer: The pEC50 was 4.46.

Question: `Cn1c(SCCOc2ccccc2F)nc2ccccc2c1=O` was tested. Which pEC50 did it give?
Answer: Its pEC50 is 5.33.

Question: With `COc1cc2c(cc1OC)-c1cc(NC3CCCCCCC3)nc(=O)n1CC2` as the molecule, how does the pEC50 read?
Answer: Its pEC50 is 4.69.

Question: `CC(C)c1cc(NCc2ccccn2)n2c(nc3ccccc32)c1C#N` was tested. Which pEC50 did it give?
Answer: The pEC50 was 5.55.

Question: `CC(=O)N1C(=O)/C(=C2\SC(=S)N(NC(=O)c3ccc(O)cc3)C2=O)c2ccccc21` was tested. Which pEC50 did it give?
Answer: The pEC50 was 5.38.

Question: With `Cc1cc(/C=c2\sc3nc4ccccc4n3c2=O)c(C)n1-c1ccc(C(=O)O)cc1` as the molecule, how does the pEC50 read?
Answer: The pEC50 was 4.32.

Question: `COc1ccc(OC)c(Nc2nc(-c3sc(N)nc3C)cs2)c1` was tested. Which pEC50 did it give?
Answer: Its pEC50 is 4.57.

Question: With `CCOc1cccc(Nc2cc3n(c(=O)n2)CCc2cc(OC)c(OC)cc2-3)c1` as the molecule, how does the pEC50 read?
Answer: The pEC50 was 4.19.

Question: How did the pEC50 turn out when `CCOC(=O)c1cc2c(N)c(C(=O)c3ccc(Br)cc3)sc2[nH]c1=O` was run?
Answer: Its pEC50 is 6.24.

Question: `COc1ccc(/C=N/NC(=O)Nc2cccc3nsnc23)cc1OC` was tested. Which pEC50 did it give?
Answer: Its pEC50 is 6.17.

Question: `O=S1(=O)N=C(N(CCO)/N=C/c2ccccc2)c2ccccc21` was tested. Which pEC50 did it give?
Answer: The pEC50 was 4.28.

Question: How did the pEC50 turn out when `O=C(CSc1ccc2nnc(-c3ccccn3)n2n1)Nc1nccs1` was run?
Answer: Its pEC50 is 4.89.

Question: How did the pEC50 turn out when `CCN1/C(=C/c2ccc3cc(C)ccc3[n+]2C)Sc2ccc3sccc3c21` was run?
Answer: The pEC50 was 4.68.

Question: `COc1cc(/C=C2/SC(=Nc3ccc(O)cc3)NC2=O)cc(OC)c1O` was tested. Which pEC50 did it give?
Answer: The pEC50 was 6.01.

Question: With `Cn1c(O)c(C2=c3ccccc3=NC2=O)[nH]c1=S` as the molecule, how does the pEC50 read?
Answer: The pEC50 was 4.87.

Question: `COc1cccc(N=Nc2c(N)[nH]n3c(=O)c4c(nc23)CCCC4)c1` was tested. Which pEC50 did it give?
Answer: Its pEC50 is 5.91.

Question: With `O=[N+]([O-])c1ccc2c(c1)c(-c1ccccc1)nc1nncn12` as the molecule, how does the pEC50 read?
Answer: Its pEC50 is 5.52.

Question: `NC(=S)N=Nc1c(O)[nH]c2c(Br)cc(Br)cc12` was tested. Which pEC50 did it give?
Answer: The pEC50 was 4.16.

Question: `CCNC(=S)N=Nc1c(O)[nH]c2ccc([N+](=O)[O-])cc12` was tested. Which pEC50 did it give?
Answer: Its pEC50 is 5.71.
